Measurements reported in the supplement of paper PMC13380429.

What was measured:
Conditions in all cases: 72 h
U2OS [1] = assay: cell viability relative to DMSO; higher = less toxic
Vero E6 [2] = assay: as above
HepG2 [3] = assay: as above
Caco-2 [4] = assay: as above
Calu-3 [5] = assay: as above
U2OS [6] = assay: relative viability EC50 (midpoint between 100% and the lowest measured viability); higher = less toxic
Vero E6 [7] = assay: as above
HepG2 [8] = assay: as above
Caco-2 [9] = assay: as above
Calu-3 [10] = assay: as above
U2OS [11] = assay: drug sensitivity score (DSS) for viability; higher = more toxic; extreme values may be limits of the assay
Vero E6 [12] = assay: as above
HepG2 [13] = assay: as above
Caco-2 [14] = assay: as above
Calu-3 [15] = assay: as above

| SMILES | cell viability (U2OS [1]; 1 nM) [%] | cell viability (U2OS [1]; 10 nM) [%] | cell viability (U2OS [1]; 100 nM) [%] | cell viability (U2OS [1]; 1000 nM) [%] | cell viability (U2OS [1]; 10000 nM) [%] | cell viability (Vero E6 [2]; 1 nM) [%] | cell viability (Vero E6 [2]; 10 nM) [%] | cell viability (Vero E6 [2]; 100 nM) [%] | cell viability (Vero E6 [2]; 1000 nM) [%] | cell viability (Vero E6 [2]; 10000 nM) [%] | cell viability (HepG2 [3]; 1 nM) [%] | cell viability (HepG2 [3]; 10 nM) [%] | cell viability (HepG2 [3]; 100 nM) [%] | cell viability (HepG2 [3]; 1000 nM) [%] | cell viability (HepG2 [3]; 10000 nM) [%] | cell viability (Caco-2 [4]; 1 nM) [%] | cell viability (Caco-2 [4]; 10 nM) [%] | cell viability (Caco-2 [4]; 100 nM) [%] | cell viability (Caco-2 [4]; 1000 nM) [%] | cell viability (Caco-2 [4]; 10000 nM) [%] | cell viability (Calu-3 [5]; 1 nM) [%] | cell viability (Calu-3 [5]; 10 nM) [%] | cell viability (Calu-3 [5]; 100 nM) [%] | cell viability (Calu-3 [5]; 1000 nM) [%] | cell viability (Calu-3 [5]; 10000 nM) [%] | relative viability EC50 (U2OS [6]) [µM] | relative viability EC50 (Vero E6 [7]) [µM] | relative viability EC50 (HepG2 [8]) [µM] | relative viability EC50 (Caco-2 [9]) [µM] | relative viability EC50 (Calu-3 [10]) [µM] | drug sensitivity score (U2OS [11]) | drug sensitivity score (Vero E6 [12]) | drug sensitivity score (HepG2 [13]) | drug sensitivity score (Caco-2 [14]) | drug sensitivity score (Calu-3 [15]) |
| --- | --- | --- | --- | --- | --- | --- | --- | --- | --- | --- | --- | --- | --- | --- | --- | --- | --- | --- | --- | --- | --- | --- | --- | --- | --- | --- | --- | --- | --- | --- | --- | --- | --- | --- | --- |
| C[C@]1(COc2ccc(N3CCC(Oc4ccc(OC(F)(F)F)cc4)CC3)cc2)Cn2cc([N+](=O)[O-])nc2O1 [delamanid] | 105 | 98.2 | 103 | 98.3 | 102 | 104 | 102 | 101 | 102 | 99.8 | 96.5 | 97.8 | 92.6 | 99.5 | 104 | 103 | 96.9 | 103 | 90.5 | 94.3 | 93 | 98 | 103 | 91.9 | 102 | > 10 | > 10 | > 10 | > 10 | > 10 | 0 | 0 | 0 | 0 | 0 |
| CC(C)=CCC/C(C)=C/CC/C(C)=C/CC[C@]1(C)CCc2cc(O)cc(C)c2O1 [delta-tocotrienol] | 97.5 | 99.8 | 98.2 | 102 | 97.9 | 107 | 93.1 | 104 | 96.9 | 108 | 90.7 | 85.3 | 98.6 | 91 | 97.1 | 99.3 | 99.1 | 81.7 | 97.1 | 105 | 94.6 | 102 | 93.2 | 101 | 113 | > 10 | > 10 | > 10 | > 10 | > 10 | 0 | 0 | 0 | 0 | 0 |
| CC(=O)OCC(=O)[C@H]1CC[C@H]2[C@@H]3CCC4=CC(=O)CC[C@]4(C)[C@H]3CC[C@]12C [deoxycorticosterone-acetate] | 96.8 | 100 | 103 | 102 | 99.2 | 100 | 99.8 | 96.2 | 98.7 | 91.7 | 107 | 110 | 95.9 | 91.5 | 107 | 85.4 | 114 | 100 | 122 | 101 | 98.4 | 99.8 | 100 | 91.9 | 107 | > 10 | > 10 | > 10 | > 10 | > 10 | 0 | 0 | 0 | 0 | 0 |
| CN(C)CCCSC(=N)N [dimaprit] | 98.5 | 103 | 95.1 | 96.2 | 96.8 | 99.9 | 98.8 | 103 | 100 | 96.2 | 99 | 106 | 99.1 | 104 | 93.2 | 99 | 102 | 93.9 | 96.3 | 97.4 | 109 | 103 | 109 | 99.1 | 96.7 | > 10 | > 10 | > 10 | > 10 | > 10 | 0 | 0 | 0 | 0 | 0 |
| C[C@@H](O)[C@H]1C(=O)N2C(C(=O)O)=C(S[C@@H]3CN[C@H](CNS(N)(=O)=O)C3)[C@H](C)[C@H]12 [doripenem] | 95.6 | 94.6 | 95.1 | 95.2 | 94.7 | 104 | 104 | 97.3 | 99.4 | 97.3 | 104 | 106 | 91 | 99.9 | 96.8 | 103 | 98 | 95.2 | 92.3 | 107 | 93.1 | 85.6 | 84 | 95.1 | 94.4 | > 10 | > 10 | > 10 | > 10 | > 10 | 0 | 0 | 0 | 0 | 0 |
| CCN(CC)CCOC(=O)C(c1ccccc1)C1CCCCC1 (stereo not given) [drofenine] | 102 | 99.1 | 100 | 98.2 | 102 | 103 | 110 | 100 | 107 | 85.8 | 93.7 | 87.5 | 86.6 | 86.9 | 87.8 | 102 | 96 | 99.3 | 88.2 | 111 | 107 | 110 | 109 | 97.3 | 98 | > 10 | > 10 | > 10 | > 10 | > 10 | 0 | 0.1 | 2.6 | 0 | 0 |
| CCCCOc1ccc(C(=O)CCN2CCCCC2)cc1 [dyclonine] | 99.9 | 103 | 94.3 | 100 | 95.5 | 94.7 | 102 | 99 | 98.6 | 97.3 | 96.6 | 93.3 | 106 | 98 | 94.7 | 102 | 108 | 101 | 85.7 | 94 | 96 | 109 | 99.2 | 109 | 102 | > 10 | > 10 | > 10 | > 10 | > 10 | 0 | 0 | 0 | 1.1 | 0 |
| Nc1nc(=O)n([C@@H]2CS[C@H](CO)O2)cc1F [emtricitabine] | 97.2 | 104 | 92.1 | 98 | 98.9 | 102 | 102 | 99.5 | 104 | 100 | 104 | 105 | 102 | 97.5 | 85.5 | 107 | 108 | 108 | 98.8 | 109 | 104 | 88.8 | 105 | 96.2 | 110 | > 10 | > 10 | > 10 | > 10 | > 10 | 0 | 0 | 0.4 | 0 | 0 |
| OC[C@@H](O)[C@@H](O)CO [erythritol] | 94.8 | 98.1 | 97.8 | 99.6 | 97.7 | 105 | 102 | 101 | 102 | 98.1 | 108 | 116 | 100 | 97.1 | 98.9 | 94.1 | 101 | 97.9 | 91 | 100 | 102 | 97.9 | 112 | 97 | 98.7 | > 10 | > 10 | > 10 | > 10 | > 10 | 0 | 0 | 0 | 0 | 0 |
| O=S(=O)(O)c1cc(O)ccc1O [etamsylate] | 92.5 | 98.3 | 95.7 | 99 | 104 | 96.2 | 94.5 | 104 | 94.5 | 106 | 107 | 105 | 110 | 108 | 97.8 | 89.7 | 100 | 91 | 98.8 | 92.4 | 95.6 | 100 | 106 | 95 | 95.3 | > 10 | > 10 | > 10 | > 10 | > 10 | 0 | 0 | 0 | 0 | 0 |
| CC(C)(Oc1ccc(Cl)cc1)C(=O)OCCOC(=O)c1cccnc1 [etofibrate] | 101 | 94.1 | 102 | 94.9 | 96.6 | 93.5 | 99.7 | 91.7 | 93.9 | 98.5 | 92.7 | 106 | 96 | 99.1 | 111 | 95.3 | 88.1 | 94 | 92.1 | 105 | 86.8 | 89.6 | 99.1 | 111 | 101 | > 10 | > 10 | > 10 | > 10 | > 10 | 0 | 0 | 0 | 0 | 0 |
| COc1cc2c(Oc3ccc(NC(=O)C4(C(=O)Nc5ccc(F)cc5)CC4)cc3F)ccnc2cc1OCCCN1CCOCC1 [foretinib] | 103 | 99.1 | 94.2 | 75.1 | 0 | 102 | 97.9 | 102 | 74.3 | 0.2 | 94.7 | 95.7 | 101 | 47.8 | 0.1 | 102 | 98.6 | 97.2 | 70.3 | 5.3 | 99.7 | 98.6 | 96.9 | 84.7 | 5.1 | 1.55 | 1.52 | 0.965 | 1.37 | 1.92 | 9.3 | 9.4 | 11.9 | 9.5 | 7.8 |
| COc1ccccc1OCC(O)CO (stereo not given) [guaifenesin] | 105 | 98.8 | 97 | 97.2 | 100 | 105 | 106 | 105 | 105 | 99.5 | 100 | 99.8 | 98.7 | 103 | 94.7 | 102 | 84.5 | 101 | 91.2 | 99.5 | 99.2 | 105 | 101 | 108 | 95.2 | > 10 | > 10 | > 10 | > 10 | > 10 | 0 | 0 | 0 | 0 | 0 |
| Nc1nc2c(ncn2[C@@H]2O[C@H](CO)[C@@H](O)[C@H]2O)c(=O)[nH]1 [guanosine] | 96.9 | 102 | 98.2 | 100 | 102 | 92.6 | 93.5 | 92.4 | 89.7 | 102 | 102 | 95.8 | 105 | 100 | 102 | 85.6 | 102 | 97.8 | 99.9 | 105 | 96 | 102 | 100 | 97 | 101 | > 10 | > 10 | > 10 | > 10 | > 10 | 0 | 0 | 0 | 0 | 0 |
